Our source for the IC50 and inhibition values is ChEMBL document CHEMBL1148426, “Essential structural features of acetogenins: role of hydroxy groups adjacent to the bis-THF rings” (Bioorg Med Chem Lett, 2004).

Assay [1] deals with Mitochondrial complex I; NADH oxidoreductase (Bos taurus, UniProt P25708+P52505). The assay can be described thus: Inhibitory concentration needed to halve the control NADH oxidase activity in bovine heart submitochondrial particles (SMP). The format is protein-complex assay.
Mitochondrial complex I; NADH oxidoreductase, sequence (P25708 21-464 limits assumed, other chains not shown): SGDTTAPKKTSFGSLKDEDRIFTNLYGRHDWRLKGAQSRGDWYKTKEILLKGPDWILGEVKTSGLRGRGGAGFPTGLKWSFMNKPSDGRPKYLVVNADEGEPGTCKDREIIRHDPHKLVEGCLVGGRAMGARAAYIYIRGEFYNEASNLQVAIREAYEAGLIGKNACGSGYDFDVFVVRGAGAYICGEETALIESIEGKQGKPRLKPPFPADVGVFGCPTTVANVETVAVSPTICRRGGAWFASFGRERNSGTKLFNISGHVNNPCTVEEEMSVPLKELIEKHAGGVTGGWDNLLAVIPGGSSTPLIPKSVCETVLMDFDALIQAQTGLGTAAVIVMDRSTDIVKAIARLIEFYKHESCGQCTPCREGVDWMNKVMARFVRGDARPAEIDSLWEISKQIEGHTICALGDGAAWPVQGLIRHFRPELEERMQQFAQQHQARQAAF
Assay [2] addresses Mitochondrial complex I; NADH oxidoreductase (Bos taurus) (UniProt P25708+P52505). Kind of assay: Maximum inhibition (2 uM) halve the control NADH oxidase activity in bovine heart submitochondrial particles (SMP). The format is protein-complex assay.

`CCCCCCCCCCC[C@H]1CC[C@H]([C@H]2CC[C@H]([C@H](O)CCCCCCCCCCCCC3=C[C@H](C)OC3=O)O2)O1`: the midpoint of inhibition in assay [1], the IC50, lay at 3.1 nM.

As for `CCCCCCCCCCC[C@H]1CC[C@H]([C@H]2CC[C@H](CCCCCCCCCCCCCC3=C[C@H](C)OC3=O)O2)O1`, the IC50 in assay [1] is 85 nM. This compound also registered an inhibition in assay [2] of 85%.

The compound `CCCCCCCCCC[C@@H](O)[C@H]1CC[C@H]([C@H]2CC[C@H](CCCCCCCCCCCCCC3=C[C@H](C)OC3=O)O2)O1` came in with an IC50 in assay [1] of 2.7 nM.

In turn, `CCCCCCCCCC[C@@H](O)[C@H]1CC[C@H]([C@H]2CC[C@H]([C@H](O)CCCCCCCCCCCCC3=C[C@H](C)OC3=O)O2)O1` [ISODESAACETYLUVARICIN] showed an IC50 in assay [1] of 0.75 nM.

What is called IC50 is the point on the concentration scale where inhibition reaches its midpoint. As usually defined, the inhibition is the change of the read-out against control, counted positive when it falls. Low values mean a response near the control, high ones a response far below the control.
